Read-outs that look alike come from different tables or passages of the source.
Columns and labels:
[1] = molecular target: T1, human gene recombinant 5-HT2c receptor expressed in CHO-K1 cell (Homo sapiens, UniProt P28335); test: Binding affinity to the serotonin 5-HT2c receptor ([3H]mesulergine)
T1 construct: purchased Euroscreen, Belgium; host or cells: CHO-K1
T1 sequence (P28335 33-458): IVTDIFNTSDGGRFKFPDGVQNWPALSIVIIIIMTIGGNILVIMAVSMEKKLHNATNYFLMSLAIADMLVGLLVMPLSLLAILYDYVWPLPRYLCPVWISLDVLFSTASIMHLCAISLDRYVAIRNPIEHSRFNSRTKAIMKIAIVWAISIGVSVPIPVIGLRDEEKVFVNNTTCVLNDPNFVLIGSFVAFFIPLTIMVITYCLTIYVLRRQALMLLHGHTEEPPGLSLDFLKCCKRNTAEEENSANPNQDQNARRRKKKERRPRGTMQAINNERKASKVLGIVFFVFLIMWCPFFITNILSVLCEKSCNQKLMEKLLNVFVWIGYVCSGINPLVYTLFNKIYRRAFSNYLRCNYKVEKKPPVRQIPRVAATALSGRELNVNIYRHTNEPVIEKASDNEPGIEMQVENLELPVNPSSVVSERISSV
Procedure: As a receptor, a human gene recombinant 5-HT2c receptor expressed in CHO—K1 cell was purchased from Euroscreen, Belgium and used in the experiment, and as a radioactive isotope, [3H]mesulergine (Amersham Biosciences, UK).
A final volume of 0.25 ml reaction mixture was prepared by adding 50 mM Tris-HCl buffer (pH 7.7) containing one of the compounds in Examples 1-29 or Comparative Examples 1-2, 1 nM of [3H]mesulergine, 5-HT2c receptor membranes (4 D/well), 0.1% ascorbic acid and 10 µM pargyline, and incubated at 37° C. for 30 minutes. After incubation, the reaction was terminated by the rapid filtration using an Inotech harvester (Inotech) through a Wallace GF/C glass fiber filter (Wallac, Finland) which was presoaked in 1% BSA, and then washed with ice-cold 50 mM Tris-HCl buffer. The filter was covered with MeltiLex, sealed in a sample bag followed by drying in the oven, and counted by MicroBeta Plus (Wallac). Non-specific binding was determined in the presence of […] Mianserin. Three repeating experiments were carried out with 7-8 concentrations of the compound in Examples 1-29 or the compound in comparative examples 1-2, run in duplicate tubes, and isotherms from the three assays were calculated by a nonlinear regression analysis (GraphPad Prism Program, San Diego, USA) to yield IC50 values.

5-HT7 = 5-HT7 (Homo sapiens, UniProt P34969); test: Receptor selectivity binding, 5-HT7; conditions: Table 3
Procedure: (§1) For their high binding affinities for 5-HT2c, compounds in Examples 14 to 18, 20, and 22 or in Comparative Example 1 were used for the experiment with reaction mixtures. Except that CNS receptors such as 5-HT1a, 5-HT2a, 5-HT7, D2, D3 or D4 other than 5-HT2c were used as a receptor, IC50 values (nM) were measured in the same manner as in Experimental Example 1.

5-HT1a = molecular target: T2, 5-HT1a (Homo sapiens, UniProt P08908); test: Receptor selectivity binding, 5-HT1a; conditions: Table 3
T2 sequence (P08908 1-422): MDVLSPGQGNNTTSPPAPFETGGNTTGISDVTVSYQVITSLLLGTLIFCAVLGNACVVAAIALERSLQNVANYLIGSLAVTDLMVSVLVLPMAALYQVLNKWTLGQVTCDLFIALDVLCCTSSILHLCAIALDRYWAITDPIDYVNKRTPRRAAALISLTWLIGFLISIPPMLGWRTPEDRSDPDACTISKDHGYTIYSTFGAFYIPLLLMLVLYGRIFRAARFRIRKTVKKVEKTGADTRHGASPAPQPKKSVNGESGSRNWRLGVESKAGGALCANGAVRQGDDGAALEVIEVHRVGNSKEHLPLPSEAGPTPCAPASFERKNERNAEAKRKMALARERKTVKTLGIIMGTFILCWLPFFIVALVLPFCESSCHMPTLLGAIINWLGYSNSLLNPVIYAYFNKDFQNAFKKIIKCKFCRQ
Procedure: as §1

D2 = D2 (Homo sapiens, UniProt P14416); test: Receptor selectivity binding, D2; conditions: Table 3
Procedure: as §1

5-HT6 = 5-HT6 (Homo sapiens, UniProt P50406); test: Receptor selectivity binding, 5-HT6; conditions: Table 3
Procedure: as §1

D3 = D3 (Homo sapiens, UniProt P35462); test: Receptor selectivity binding, D3; conditions: Table 3
Procedure: as §1

D4 = molecular target: T3, D4 (Homo sapiens, UniProt P21917); test: Receptor selectivity binding, D4; conditions: Table 3
T3 sequence (P21917 1-419): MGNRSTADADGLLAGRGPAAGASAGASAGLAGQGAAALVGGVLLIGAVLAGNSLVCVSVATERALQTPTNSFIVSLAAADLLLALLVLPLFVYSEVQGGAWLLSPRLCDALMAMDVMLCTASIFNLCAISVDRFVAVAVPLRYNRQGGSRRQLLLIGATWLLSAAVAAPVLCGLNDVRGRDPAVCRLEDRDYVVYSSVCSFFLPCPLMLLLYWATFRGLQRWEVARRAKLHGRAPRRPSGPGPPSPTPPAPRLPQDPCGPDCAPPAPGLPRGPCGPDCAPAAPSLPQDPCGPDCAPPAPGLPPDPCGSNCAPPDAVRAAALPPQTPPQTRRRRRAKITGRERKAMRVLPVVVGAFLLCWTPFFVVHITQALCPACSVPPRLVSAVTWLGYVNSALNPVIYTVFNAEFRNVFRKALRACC
Procedure: as §1

5-HT2a = 5-HT2a (Homo sapiens, UniProt P28223); test: Receptor selectivity binding, 5-HT2a; conditions: Table 3
Procedure: as §1

[2] = [3H]mesulergine 1 nM, 37° C. 30 minutes, Table 2, read-out: IC50

Chain of D2 (P14416 whole entry): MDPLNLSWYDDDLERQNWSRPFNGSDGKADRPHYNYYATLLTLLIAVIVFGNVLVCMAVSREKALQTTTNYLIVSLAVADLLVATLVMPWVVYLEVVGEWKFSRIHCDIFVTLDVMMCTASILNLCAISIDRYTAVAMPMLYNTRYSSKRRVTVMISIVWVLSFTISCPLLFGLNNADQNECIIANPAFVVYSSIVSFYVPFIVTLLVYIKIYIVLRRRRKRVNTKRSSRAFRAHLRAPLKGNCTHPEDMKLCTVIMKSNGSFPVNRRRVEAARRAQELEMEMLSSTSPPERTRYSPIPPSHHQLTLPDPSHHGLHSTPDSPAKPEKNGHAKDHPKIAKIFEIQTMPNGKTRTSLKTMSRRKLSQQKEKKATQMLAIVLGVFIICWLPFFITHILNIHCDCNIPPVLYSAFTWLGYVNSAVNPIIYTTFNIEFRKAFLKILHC
Chain of 5-HT2a (P28223 whole entry, species assumed): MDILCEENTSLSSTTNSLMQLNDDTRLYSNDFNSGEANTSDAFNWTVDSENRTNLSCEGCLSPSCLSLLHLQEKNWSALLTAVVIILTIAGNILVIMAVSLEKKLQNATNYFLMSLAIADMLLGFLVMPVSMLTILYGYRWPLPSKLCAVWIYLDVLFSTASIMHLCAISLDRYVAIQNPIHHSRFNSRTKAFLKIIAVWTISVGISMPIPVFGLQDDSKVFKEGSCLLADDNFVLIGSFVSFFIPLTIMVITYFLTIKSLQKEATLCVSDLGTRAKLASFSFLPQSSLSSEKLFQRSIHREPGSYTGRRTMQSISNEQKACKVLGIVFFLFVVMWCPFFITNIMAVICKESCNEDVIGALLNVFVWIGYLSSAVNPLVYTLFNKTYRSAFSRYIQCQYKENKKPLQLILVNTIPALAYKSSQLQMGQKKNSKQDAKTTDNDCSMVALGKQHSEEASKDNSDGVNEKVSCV
Chain of 5-HT6 (P50406 whole entry, species assumed): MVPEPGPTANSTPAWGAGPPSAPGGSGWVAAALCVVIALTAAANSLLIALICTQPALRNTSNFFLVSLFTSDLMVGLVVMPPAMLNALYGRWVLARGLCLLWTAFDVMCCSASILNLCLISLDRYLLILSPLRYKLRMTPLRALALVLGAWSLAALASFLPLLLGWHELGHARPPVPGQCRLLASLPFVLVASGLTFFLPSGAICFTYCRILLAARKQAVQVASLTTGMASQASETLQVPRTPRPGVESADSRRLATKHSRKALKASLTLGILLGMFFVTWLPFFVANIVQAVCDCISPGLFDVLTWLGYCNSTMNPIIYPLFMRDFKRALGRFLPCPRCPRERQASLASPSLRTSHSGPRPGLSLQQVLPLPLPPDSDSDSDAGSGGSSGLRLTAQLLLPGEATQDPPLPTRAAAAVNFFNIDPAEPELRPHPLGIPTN
Chain of 5-HT7 (P34969 whole entry, species assumed): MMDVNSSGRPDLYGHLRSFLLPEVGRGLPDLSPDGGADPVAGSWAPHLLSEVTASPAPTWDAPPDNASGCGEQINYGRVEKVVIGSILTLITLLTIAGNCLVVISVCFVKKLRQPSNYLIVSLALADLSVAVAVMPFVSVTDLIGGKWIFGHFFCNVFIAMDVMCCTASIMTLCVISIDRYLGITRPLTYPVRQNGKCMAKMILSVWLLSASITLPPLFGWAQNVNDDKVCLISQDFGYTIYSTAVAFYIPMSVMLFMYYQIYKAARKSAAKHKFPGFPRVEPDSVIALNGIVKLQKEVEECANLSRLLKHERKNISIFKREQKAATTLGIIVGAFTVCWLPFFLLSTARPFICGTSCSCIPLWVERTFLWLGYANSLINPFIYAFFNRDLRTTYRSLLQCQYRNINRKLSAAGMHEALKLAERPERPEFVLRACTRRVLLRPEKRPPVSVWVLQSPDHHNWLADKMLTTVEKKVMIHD
Chain of D3 (P35462 whole entry): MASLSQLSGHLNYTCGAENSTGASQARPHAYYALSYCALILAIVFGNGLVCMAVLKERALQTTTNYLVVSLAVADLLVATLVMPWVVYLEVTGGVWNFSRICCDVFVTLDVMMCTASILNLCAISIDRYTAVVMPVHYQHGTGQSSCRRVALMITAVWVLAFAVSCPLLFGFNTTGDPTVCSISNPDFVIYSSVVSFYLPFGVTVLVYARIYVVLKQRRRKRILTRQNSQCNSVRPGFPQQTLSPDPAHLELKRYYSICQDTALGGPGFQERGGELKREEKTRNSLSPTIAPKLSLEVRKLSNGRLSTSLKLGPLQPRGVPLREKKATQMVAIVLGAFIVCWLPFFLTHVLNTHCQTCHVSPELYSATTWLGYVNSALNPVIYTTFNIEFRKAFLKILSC

| Compound | IC50 [1, 2] [nM] | melting point [°C] | further results |
| --- | --- | --- | --- |
| 1H-indole-2-carboxylic acid[6-(2-methyl-pyridine-3-yloxy)-pyridine-3-yl]-amide [Example 5] | 59 | – | – |
| Cc1ncccc1Oc1ccc(NCc2c[nH]c3ccccc23)cn1 [Example 9, (1H-indole-3-ylmethyl)-[6-(2-methyl-pyridine-3-yloxy)-pyridine-3-yl]-amine] | > 10000 | – | – |
| Cc1ccc2c(C(=O)Nc3ccc(Oc4cccnc4C)nc3)c[nH]c2c1 [Example 16, 6-methyl-1H-indole-3-carboxylic acid[6-(2-methyl-pyridine-3-yloxy)-pyridine-3-yl]-amide] | 1.9 | – | IC50 (5-HT7): > 10000 nM; IC50 (5-HT1a): > 10000 nM; IC50 (D2): > 10000 nM; IC50 (5-HT6): > 10000 nM; IC50 ([1]; Table 3, read-out: IC50 5-HT2c): 1.9 nM; IC50 (D3): > 10000 nM; IC50 (D4): > 10000 nM; IC50 (5-HT2a): > 10000 nM |
| COc1ccc2[nH]cc(C(=O)Nc3ccc(Oc4cccnc4C)nc3)c2c1 [Example 15, 5-methoxy-1H-indole-3-carboxylic acid[6-(2-methyl-pyridine-3-yloxy)-pyridine-3-yl]-amide] | 10.7 | – | IC50 (5-HT7): > 10000 nM; IC50 (5-HT1a): > 10000 nM; IC50 (D2): > 10000 nM; IC50 (5-HT6): > 10000 nM; IC50 ([1]; Table 3, read-out: IC50 5-HT2c): 10.7 nM; IC50 (D3): > 10000 nM; IC50 (D4): > 10000 nM; IC50 (5-HT2a): > 10000 nM |
| Cc1cc2c(cc1C(F)(F)F)N(C(=O)Nc1ccc(OCc3ccccn3)nc1)CC2 [Comparative Example 2, SB-247853] | 1.3 | 220 to 222 | – |
| Cc1ncccc1Oc1ccc(NC(=O)c2c[nH]c3ccccc23)cn1 [Example 6, 1H-indole-3-carboxylic acid[6-(2-methyl-pyridine-3-yloxy)-pyridine-3-yl]-amide] | 67 | 108 to 110 | – |
| O=C(Nc1ccc(Oc2cccnc2)nc1)c1c[nH]c2ccccc12 [Example 24, 1H-indole-3-carboxylic acid[6-(pyridine-3-yloxy)-pyridine-3-yl]-amide] | 1.6 | – | – |
| Cc1ncccc1Oc1ccc(NC(=O)c2coc3ccccc23)cn1 [Example 3, benzofuran-3-carboxylic acid[6-(2-methyl-pyridine-3-yloxy)-pyridine-3-yl]-amide] | 167 | 52 to 55 | – |
| Cc1ncccc1Oc1ccc(NC(=S)c2c[nH]c3ccccc23)cn1 [Example 10] | 23 | – | – |
| Cc1ncccc1Oc1ccc(N(C)C(=O)c2cn(C)c3ccccc23)cn1 [Example 13, 1-methyl-1H-indole-3-carboxylic acid methyl-[6-(2-methyl-pyridine-3-yloxy)-pyridine-3-yl]-amide] | 6370 | – | – |
| Cc1ncccc1Oc1ccc(NS(=O)(=O)c2coc3ccccc23)cn1 [Example 1, benzofuran-3-sulfonic acid[6-(2-methyl-pyridine-3-yloxy)-pyridine-3-yl]-amide] | 321 | 128 to 129 | – |
| Cc1ncccc1Oc1ccc(NS(=O)(=O)c2csc3ccccc23)cn1 [Example 2, benzo[b]thiophene-3-sulfonic acid[6-(2-methyl-pyridine-3-yloxy)-pyridine-3-yl]-amide] | 572 | 93 to 95 | – |
| Cc1ncccc1Oc1ccc(NC(=O)c2nc3ccccc3[nH]2)cn1 [Example 7, 1H-benzoimidazole-2-carboxylic acid[6-(2-methyl-pyridine-3-yloxy)-pyridine-3-yl]-amide] | > 10000 | 191 to 193 | – |
| Cc1ncccc1Oc1ccc(NC(=O)c2csc3ccccc23)cn1 [Example 4, benzo[b]thiophene-3-carboxylic acid[6-(2-methyl-pyridine-3-yloxy)-pyridine-3-yl]-amide] | 50 | 81 to 83 | – |
| Cc1ncccc1Oc1ccc(NC(=O)c2ccc3ccccc3c2)cn1 [Example 8, naphthalene-2-carboxylic acid[6-(2-methyl-pyridine-3-yloxy)-pyridine-3-yl]-amide] | 302 | 156 to 158 | – |

Second part, led by results:

| IC50 [1, 2] [nM] | melting point [°C] | Compound | further results |
| --- | --- | --- | --- |
| 7 | – | Cc1ccc2c(C(=O)Nc3ccc(Oc4cccnc4Cl)nc3)c[nH]c2c1 [Example 28, 6-methyl-1H-indole-3-carboxylic acid[6-(2-chloro-pyridine-3-yloxy)-pyridine-3-yl]-amide] | – |
| > 10000 | – | COc1nc(OC)nc(Oc2ccc(NC(=O)c3c[nH]c4ccccc34)cc2)n1 [Example 29, 1H-indole-3-carboxylic acid[4-(4,6-dimethoxy-[1,3,5]triazine-2-ylxoxy)-phenyl]-amide] | – |
| 9440 | – | Cc1ncccc1Oc1ccc(N(C)C(=O)c2c[nH]c3ccccc23)cn1 [Example 12, 1H-indole-3-carboxylic acid methyl-[6-(2-methyl-pyridine-3-yloxy)-pyridine-3-yl]-amide] | – |
| > 1000 | – | O=C(Nc1cccnc1)c1c[nH]c2ccccc12 [Example 26, 1H-indole-3-carboxylic acid pyridine-3-ylamide] | – |
| 542 | – | O=C(Nc1ccc(Oc2ccccc2)nc1)c1c[nH]c2ccccc12 [Example 25, 1H-indole-3-carboxylic acid(6-phenoxy-pyridine-3-yl)-amide] | – |
| 474 | – | Cc1ncccc1Oc1ccc(NC(=O)c2cn(C)c3ccccc23)cn1 [Example 11, 1-methyl-1H-indole-3-carboxylid acid[6-(2-methyl-pyridine-3-yloxy)-pyridine-3-yl]-amide] | – |
| 214 | – | O=C(Nc1ccc(-c2cccnc2)cc1)c1c[nH]c2ccccc12 [Example 27, 1H-indole-3-carboxylic acid (4-pyridine-3-yl-phenyl)-amide] | – |
| 50 | – | O=C(Nc1ccc(Oc2cncnc2)nc1)c1c[nH]c2ccccc12 [Example 19, 1H-indole-3-carboxylic acid[6-(pyrimidin-5-yloxy)-pyridine-3-yl]-amide] | – |
| 106 | – | O=C(Nc1ccc(Oc2cccnc2Br)nc1)c1c[nH]c2ccccc12 [Example 23, 1H-indole-3-carboxylic acid[6-(2-bromo-pyridine-3-yloxy)-pyridine-3-yl]-amide] | – |
| 2250 | – | Cc1ccc(Oc2ccc(NC(=O)c3c[nH]c4ccccc34)cn2)cn1 [Example 21, 1H-indole-3-carboxylic acid[6-(6-methyl-pyridine-3-yloxy)-pyridine-3-yl]-amide] | – |

From patent publication US8324246B2, “Indol carboxylic acid bispyridyl carboxamide derivatives, pharmaceutically acceptable salt thereof, preparation method and composition containing the same as an active ingredient” (Korea Research Institute of Chemical Technology, priority 2008, dated 2012)
